How the values were obtained:
AmCYP12_1 (Seq ID 45) = assay: Herbicide degradation in transgenic yeast cells expressing cytochrome P450 AmCYP12_1; assay type: in vitro ADME, Alopecurus myosuroides; details: transgenic yeast cells (S. cerevisiae BJ5459) expressing AmCYP12_1, Seq ID 45, recovery of herbicide in reference to control, UPLC-MS/MS
Text: (§1) The cDNA of CYP450 monooxygenase genes were synthesized with an optimized codon usage for yeast, cloned via uniqueBamHI-SalI restriction sites in the low copy pESC-ura expression vector (Agilent Technologies). Constructs were transformed into S. cerevisiae wild type strain BJ5459 (MATa ura3-5 trp lys2-801 leu2Δ1 his3Δ200 pep4Δ::HIS3 prb1Δ1.6R can1 GAL cir^+; ATCC 208284) using a Yeast Maker Transformation System from Clontech and verified by colony PCR. Positive clones were selected on minimal synthetic-defined media (SD) supplemented with appropriate dropout solution. The strain had no obvious phenotypes. Cells were induced in SG-Ura medium (same composition as SD but with galactose instead of glucose) for 24 h (Pompon et al., Methods in Enzymology 272:51-64 (1996); Urban et al., Eur. J. Biochem. 222:[…] (1994)). Optimal heterologous protein expression was assayed using Western Blot analysis.
(§2) 96 deep well growth plates (STARLAB GmbH) charged with 700 μL SDA medium are inoculated with the respective yeast strains from cryostock and incubated at 30° C., 400 rpm. After 48 h, an aliquot is transferred into a new plate with fresh SDA medium 400 rpm. After 4 h the cultures are spun down, the supernatant discarded and the pellets resuspended in 700 μL pre-warmed SGA media to induce protein expression at 30° C. and 400 rpm. After an incubation time of 24 h, 7 μL herbicide solution (500 μM DMSO stock solution) or solvent control is added to the yeast culture incubated for additional 24 h. The herbicide conversion is stopped by adding 700 μL acetonitrile followed by ultrasonification. The homogenate is prepared for UPLC-MS/MS analysis. The degradation rate was calculated by the determination of the recovery of the herbicide in reference to the control.

AmCYP03b (Seq ID 6) = assay: Herbicide degradation in transgenic yeast cells expressing cytochrome P450 AmCYP03b; assay type: in vitro ADME, Alopecurus myosuroides; details: transgenic yeast cells (S. cerevisiae BJ5459) expressing AmCYP03b, recovery of herbicide in reference to control, UPLC-MS/MS
Text: as §1, §2

AmCYP04 (Seq ID 27) = assay: Herbicide degradation in transgenic yeast cells expressing cytochrome P450 AmCYP04; assay type: in vitro ADME, Alopecurus myosuroides; details: transgenic yeast cells (S. cerevisiae BJ5459) expressing AmCYP04, Seq ID 27, recovery of herbicide in reference to control, UPLC-MS/MS
Text: as §1, §2

[1] = system: transgenic plants expressing Am_CYP04 (SEQ ID 27); assay: Greenhouse herbicide tolerance of transgenic plants expressing Am_CYP04 (FIG. 2); assay type: in vivo, Arabidopsis thaliana; details: plants expressing Am_CYP04 (SEQ ID 27) vs wildtype, different application rates (g/ha)
Protocol: (§3) Transgenic Arabidopsis thaliana plants were assayed for improved tolerance to saflufenacil, 1,5-dimethyl-6-thioxo-3-(2,2,7-trifluoro-3-oxo-4-(prop-2-ynyl)-3,4-dihydro-2H-benzo[b][1,4]oxazin-6-yl)-1,3,5-triazinane-2,4-dione (CAS 1258836-72-4), chlorotoluron, pendimethalin, flumioxazin, butafenacil, acifluorfen, lactofen, bifenox, diuron, sulfentrazon, tepraloxydim, coumarone-derivative herbicides, azine-derivative herbicides in 48-well plates. Therefore, T2 seeds are surface sterilized by stirring for 5 min in ethanol+water (70+30 by volume), rinsing one time with ethanol+water (70+30 by volume) and two times with sterile, deionized water. The seeds are resuspended in 0.1% agar dissolved in water (w/v) Four to five seeds per well are plated on solid nutrient medium consisting of half-strength murashige skoog nutrient solution, pH 5.8 (Murashige and Skoog (1962) Physiologia Plantarum 15: 473-497). Compounds are dissolved in dimethylsulfoxid (DMSO) and added to the medium prior solidification (final DMSO concentration 0.1%). Multi well plates are incubated in a growth chamber at 22° C., 75% relative humidity and 110 μmol Phot*m^2*s^−1 with 14:10 h light: dark photoperiod. Growth inhibition is evaluated seven to ten days after seeding in comparison to wild type plants. Additionally, transgenic T1 Arabidopsis plants were tested for improved tolerance to herbicides in greenhouse studies with the following herbicides: saflufenacil, 1,5-dimethyl-6-thioxo-3-(2,2,7-trifluoro-3-oxo-4-(prop-2-ynyl)-3,4-dihydro-2H-benzo[b][1,4]oxazin-6-yl)-1,3,5-triazinane-2,4-dione (CAS 1258836-72-4), chlorotoluron, pendimethalin, flumioxazin, butafenacil, acifluorfen, lactofen, bifenox, diuron, sulfentrazone, tepraloxydim, coumarone-derivative herbicides, azine-derivative herbicides.

AmCYP03_1 (Seq ID 4) = assay: Herbicide degradation in transgenic yeast cells expressing cytochrome P450 AmCYP03_1; assay type: in vitro ADME, Alopecurus myosuroides; details: transgenic yeast cells (S. cerevisiae BJ5459) expressing AmCYP03_1, Seq ID 4, recovery of herbicide in reference to control, UPLC-MS/MS
Text: as §1, §2

AmCYP01 (Seq ID 2) = assay: Herbicide degradation in transgenic yeast cells expressing cytochrome P450 AmCYP01; assay type: in vitro ADME, Alopecurus myosuroides; details: transgenic yeast cells (S. cerevisiae BJ5459) expressing AmCYP01, Seq ID 2, recovery of herbicide in reference to control, UPLC-MS/MS
Text: as §1, §2

[2] = system: transgenic plants expressing Am_CYP03 (SEQ ID 4); assay: Greenhouse herbicide tolerance of transgenic plants expressing Am_CYP03 (FIG. 1); assay type: in vivo, Arabidopsis thaliana; details: plants expressing Am_CYP03 (SEQ ID 4) vs wildtype, different application rates (g/ha)
Protocol: as §3

Row | Compound | Degradation rate of listed herbicidal compounds within 24 h (AmCYP12_1 (Seq ID 45)) | Degradation rate of listed herbicidal compounds within 24 h (AmCYP03b (Seq ID 6)) | Degradation rate of listed herbicidal compounds within 24 h (AmCYP04 (Seq ID 27)) | Phenotype (injury) of transgenic plants compared to non-transgenic plants [1] | Degradation rate of listed herbicidal compounds within 24 h (AmCYP03_1 (Seq ID 4)) | Degradation rate of listed herbicidal compounds within 24 h (AmCYP01 (Seq ID 2)) | Phenotype (injury) of transgenic plants compared to non-transgenic plants [2]
1 | Cc1ccc(NC(=O)N(C)C)cc1Cl [Chlorotoluron, reference compound] | 22 | 29 | 26 | much less injured | 32 | 18 | much less injured
2 | CC(C)N(C)S(=O)(=O)NC(=O)c1cc(-n2c(=O)cc(C(F)(F)F)n(C)c2=O)c(F)cc1Cl [saflufenacil, reference compound] | 20 | 9 | 18 | much less injured | 10 | 20 | much less injured
